The values below come from PubChem BioAssay AID1919005 (Molecular Pharmacology Branch, DTP, NCI, 2023).

This experiment concerns 855422-203-R-J1-PDC complex spheroid growth. Kind of experiment: Anticancer human tumor 855422-203-R-J1-PDC patient-derived bladder carcinoma cell line growth inhibition [AhR]. The settings on record: for viability, T/C: stronger effect = lower value. A digest of the protocol:
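Spheroids combined tumor cells with HUVEC endothelial cells and human MSCs as stroma. AhR antagonists were paired with standard or investigational drugs, each dosed in half-log steps down from near clinical Cmax, or from 10 microM where Cmax was unknown.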

Where [1] appears, read: curve of first compound, second compound 0.1 µM.
Setting [2] is: curve of first compound, second compound 0.316 µM.
Setting [3] is: curve of first compound, second compound 1 µM.
Where [4] appears, read: curve of first compound, second compound 3.16 µM.
Setting [5] is: curve of first compound, second compound 10 µM.
[6] abbreviates: second compound 0.1 µM, first compound 0.0316 µM.
[7] abbreviates: second compound 0.1 µM, first compound 0.1 µM.
[8] abbreviates: second compound 0.316 µM, first compound 0.0316 µM.
Setting [9] is: second compound 0.316 µM, first compound 0.1 µM.
Setting [10] is: second compound 1 µM, first compound 0.0316 µM.
Where [11] appears, read: second compound 1 µM, first compound 0.1 µM.
[12] abbreviates: second compound 3.16 µM, first compound 0.0316 µM.
The mark [13] stands for this setting: second compound 3.16 µM, first compound 0.1 µM.
Setting [14] is: second compound 10 µM, first compound 0.0316 µM.
Setting [15] is: second compound 10 µM, first compound 0.1 µM.

Several values for one entry are separate records, joined by “and”; a condition that tells them apart may be missing. Identical values can stand only once.
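Also: spheroids exposed to agents for seven days before readout.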
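For viability, T/C in this document: percent of DMSO vehicle control luminescence viability.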

Take `COc1cc(Nc2ncc3c(n2)-c2ccc(Cl)cc2C(c2c(F)cccc2OC)=NC3)ccc1C(=O)O`: the viability, T/C was 102% and 109% and 95.2% (compound 0.0316 µM); 105% and 114% (2×) (compound 0.1 µM); 60.7% and 90.8% and 66.4% (compound 0.316 µM); 55.4% and 89% and 51.6% (compound 1 µM); 47.3% and 82.6% and 48.8% (compound 3.16 µM); 45.4% and 68.6% and 47% (compound 10 µM).

Regarding `CCc1c2c(nc3ccc(O)cc13)-c1cc3c(c(=O)n1C2)COC(=O)[C@]3(O)CC` + Cc1ccccc1N=Nc1ccc(NC(=O)c2ccnn2C)c(C)c1, the IC50 amounted to 18.1 nM under setting [1]; 15.5 nM under setting [2]; 11.5 nM under setting [3]; 7.01 nM under setting [4]; 5.43 nM under setting [5]. The viability, T/C (second compound 0.1 µM, first compound 0.000949 µM) was 107%; the viability, T/C (second compound 0.1 µM, first compound 0.003 µM) is 98.3%; the viability, T/C (second compound 0.1 µM, first compound 0.00949 µM) was 75.5%; the viability, T/C (second compound 0.1 µM, first compound 0.03 µM) is 29.6%; the viability, T/C (second compound 0.1 µM, first compound 0.0949 µM) was 17.4%; the viability, T/C (second compound 0.1 µM, first compound 0.3 µM) is 11.5%. Moreover, the viability, T/C was 98.3% (second compound 0.316 µM, first compound 0.000949 µM); 93.7% (second compound 0.316 µM, first compound 0.003 µM); 68.1% (second compound 0.316 µM, first compound 0.00949 µM); 25.2% (second compound 0.316 µM, first compound 0.03 µM); 14.6% (second compound 0.316 µM, first compound 0.0949 µM); 9.09% (second compound 0.316 µM, first compound 0.3 µM). The viability, T/C by setting is: (second compound 1 µM, first compound 0.000949 µM) 102%; (second compound 1 µM, first compound 0.003 µM) 95.3%; (second compound 1 µM, first compound 0.00949 µM) 55.5%; (second compound 1 µM, first compound 0.03 µM) 20.7%; (second compound 1 µM, first compound 0.0949 µM) 14%; (second compound 1 µM, first compound 0.3 µM) 9.24%. Further, the viability, T/C runs as follows: (second compound 3.16 µM, first compound 0.000949 µM) 92.3%; (second compound 3.16 µM, first compound 0.003 µM) 81.8%; (second compound 3.16 µM, first compound 0.00949 µM) 36.8%; (second compound 3.16 µM, first compound 0.03 µM) 21.7%; (second compound 3.16 µM, first compound 0.0949 µM) 13%; (second compound 3.16 µM, first compound 0.3 µM) 7.68%. Further, the viability, T/C (second compound 10 µM, first compound 0.000949 µM) was 76.5%; the viability, T/C (second compound 10 µM, first compound 0.003 µM) was 73.4%; the viability, T/C (second compound 10 µM, first compound 0.00949 µM) was 28.1%; the viability, T/C (second compound 10 µM, first compound 0.03 µM) was 22%; the viability, T/C (second compound 10 µM, first compound 0.0949 µM) was 13.7%; the viability, T/C (second compound 10 µM, first compound 0.3 µM) is 9.18%.

`O=C(C=Cn1cnc(-c2cc(C(F)(F)F)cc(C(F)(F)F)c2)n1)NNc1cnccn1`: the viability, T/C is, setting by setting: (compound 0.00949 µM) 110% and 118% and 112%; (compound 0.03 µM) 105% and 125% and 130%; (compound 0.0949 µM) 164% and 169% and 162%; (compound 0.3 µM) 41.3% and 95.5% and 51.4%; (compound 0.949 µM) 29.9% and 55.1% and 35%; (compound 3 µM) 20.7% and 42.1% and 27.6%. Moreover, the IC50 (curve of compound) was 267 nM and 917 nM and 327 nM.

`CC[C@@]1(O)C(=O)OCc2c1cc1n(c2=O)Cc2cc3c(CN(C)C)c(O)ccc3nc2-1` + Cc1ccccc1N=Nc1ccc(NC(=O)c2ccnn2C)c(C)c1: the IC50 under setting [1] came out at 86.1 nM; the IC50 under setting [2] was 65.1 nM; the IC50 under setting [3] stood at 62 nM; the IC50 under setting [4] came to 31.9 nM; the IC50 under setting [5] amounted to 30.5 nM. Moreover, the viability, T/C runs as follows: (second compound 0.1 µM, first compound 0.000316 µM) 104%; (second compound 0.1 µM, first compound 0.001 µM) 103%; (second compound 0.1 µM, first compound 0.00316 µM) 106%; (second compound 0.1 µM, first compound 0.01 µM) 97.9%; under setting [6], 90.4%; under setting [7], 43.7%. Besides, the viability, T/C (second compound 0.316 µM, first compound 0.000316 µM) is 96.7%; the viability, T/C (second compound 0.316 µM, first compound 0.001 µM) is 101%; the viability, T/C (second compound 0.316 µM, first compound 0.00316 µM) was 94.1%; the viability, T/C (second compound 0.316 µM, first compound 0.01 µM) is 97.2%; the viability, T/C under setting [8] is 77.8%; the viability, T/C under setting [9] was 33.5%. Also, the viability, T/C is 110% (second compound 1 µM, first compound 0.000316 µM); 98.3% (second compound 1 µM, first compound 0.001 µM); 95.2% (second compound 1 µM, first compound 0.00316 µM); 98.7% (second compound 1 µM, first compound 0.01 µM); 74.7% under setting [10]; 31.9% under setting [11]. Further, the viability, T/C (second compound 3.16 µM, first compound 0.000316 µM) was 97.4%; the viability, T/C (second compound 3.16 µM, first compound 0.001 µM) is 96.4%; the viability, T/C (second compound 3.16 µM, first compound 0.00316 µM) is 89.3%; the viability, T/C (second compound 3.16 µM, first compound 0.01 µM) is 87.1%; the viability, T/C under setting [12] is 49.9%; the viability, T/C under setting [13] was 30.8%. Besides, the viability, T/C by setting is: (second compound 10 µM, first compound 0.000316 µM) 88.1%; (second compound 10 µM, first compound 0.001 µM) 81.7%; (second compound 10 µM, first compound 0.00316 µM) 87.6%; (second compound 10 µM, first compound 0.01 µM) 86.9%; under setting [14], 48.7%; under setting [15], 29.7%.

Take `COc1cc(C2c3cc4c(cc3C(OC3OC5COC(C)OC5C(O)C3O)C3COC(=O)C23)OCO4)cc(OC)c1O` (stereo not drawn) + Cc1ccccc1N=Nc1ccc(NC(=O)c2ccnn2C)c(C)c1: the IC50 under setting [1] amounted to 468 nM; the IC50 under setting [2] was found to be 463 nM; the IC50 under setting [3] stood at 505 nM; the IC50 under setting [4] stood at 434 nM; the IC50 under setting [5] came out at 368 nM. The viability, T/C is 96.5% under setting [6]; 93.2% under setting [7]; 60.8% (second compound 0.1 µM, first compound 0.316 µM); 26.7% (second compound 0.1 µM, first compound 1 µM); 15.2% (second compound 0.1 µM, first compound 3.16 µM); 7.04% (second compound 0.1 µM, first compound 10 µM). Further, the viability, T/C runs as follows: under setting [8], 93.7%; under setting [9], 96.6%; (second compound 0.316 µM, first compound 0.316 µM) 61%; (second compound 0.316 µM, first compound 1 µM) 24.6%; (second compound 0.316 µM, first compound 3.16 µM) 14.8%; (second compound 0.316 µM, first compound 10 µM) 6.03%. Also, the viability, T/C under setting [10] is 98.8%; the viability, T/C under setting [11] was 95.7%; the viability, T/C (second compound 1 µM, first compound 0.316 µM) is 65%; the viability, T/C (second compound 1 µM, first compound 1 µM) was 26.5%; the viability, T/C (second compound 1 µM, first compound 3.16 µM) is 15.9%; the viability, T/C (second compound 1 µM, first compound 10 µM) was 6.19%. Moreover, the viability, T/C is 82.9% under setting [12]; 83.9% under setting [13]; 58.1% (second compound 3.16 µM, first compound 0.316 µM); 25.3% (second compound 3.16 µM, first compound 1 µM); 12.4% (second compound 3.16 µM, first compound 3.16 µM); 5.67% (second compound 3.16 µM, first compound 10 µM). The viability, T/C runs as follows: under setting [14], 83%; under setting [15], 82.8%; (second compound 10 µM, first compound 0.316 µM) 48.3%; (second compound 10 µM, first compound 1 µM) 29.8%; (second compound 10 µM, first compound 3.16 µM) 13.7%; (second compound 10 µM, first compound 10 µM) 7.06%.

By viability, T/C is commonly meant the ratio of treated to control. Broadly, the IC50 is the concentration that gives 50% inhibition.
